Assay results reported in paper PMC5478727, “A Novel Small Molecule GDNF Receptor RET Agonist, BT13, Promotes Neurite Growth from Sensory Neurons in Vitro and Attenuates Experimental Neuropathy in the Rat” (Frontiers in Pharmacology, 2017).

Columns and labels:
[1] = Pharmacokinetics after intravenous injection; assay type: in vivo; settings: rat, 10 mg/kg intravenously
[2] = tested on: rats; assay: Tolerability: weight gain, toxic signs, pathological analysis of major organs; assay type: in vivo, rat
[3] = target: T1, adrenergic receptor beta 3 (Homo sapiens, UniProt P13945); assay: CEREP Beta 3 (non-selective; antagonist radioligand); assay type: binding; settings: BT13 1 μM; Cat. No. 3963; average of duplicate; read-out: Percentage of inhibition/potentiation from control
T1 construct: purchased CEREP (contract assay) Cat# 3963
T1 sequence (P13945 whole entry): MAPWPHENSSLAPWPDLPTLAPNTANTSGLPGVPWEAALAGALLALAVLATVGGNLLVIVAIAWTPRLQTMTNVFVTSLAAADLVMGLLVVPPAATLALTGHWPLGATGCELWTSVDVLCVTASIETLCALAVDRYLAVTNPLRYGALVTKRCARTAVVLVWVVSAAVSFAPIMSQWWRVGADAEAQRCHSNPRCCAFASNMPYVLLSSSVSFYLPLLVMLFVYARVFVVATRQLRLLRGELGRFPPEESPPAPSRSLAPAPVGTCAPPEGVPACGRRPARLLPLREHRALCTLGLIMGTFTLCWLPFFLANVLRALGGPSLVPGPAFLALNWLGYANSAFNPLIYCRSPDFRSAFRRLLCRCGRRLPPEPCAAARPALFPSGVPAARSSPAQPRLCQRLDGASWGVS

[4] = target: T2, RET (Homo sapiens, UniProt P07949); assay: Luciferase reporter-gene assay (PathDetect Elk-1), RET reporter cells; assay type: cell-based; settings: RET reporter cell line
T2 construct: full-length human RET (long isoform) in pCR3.1; expressed in transfected cells; host or cells: MG87RET murine fibroblasts
T2 sequence (P07949 29-1114): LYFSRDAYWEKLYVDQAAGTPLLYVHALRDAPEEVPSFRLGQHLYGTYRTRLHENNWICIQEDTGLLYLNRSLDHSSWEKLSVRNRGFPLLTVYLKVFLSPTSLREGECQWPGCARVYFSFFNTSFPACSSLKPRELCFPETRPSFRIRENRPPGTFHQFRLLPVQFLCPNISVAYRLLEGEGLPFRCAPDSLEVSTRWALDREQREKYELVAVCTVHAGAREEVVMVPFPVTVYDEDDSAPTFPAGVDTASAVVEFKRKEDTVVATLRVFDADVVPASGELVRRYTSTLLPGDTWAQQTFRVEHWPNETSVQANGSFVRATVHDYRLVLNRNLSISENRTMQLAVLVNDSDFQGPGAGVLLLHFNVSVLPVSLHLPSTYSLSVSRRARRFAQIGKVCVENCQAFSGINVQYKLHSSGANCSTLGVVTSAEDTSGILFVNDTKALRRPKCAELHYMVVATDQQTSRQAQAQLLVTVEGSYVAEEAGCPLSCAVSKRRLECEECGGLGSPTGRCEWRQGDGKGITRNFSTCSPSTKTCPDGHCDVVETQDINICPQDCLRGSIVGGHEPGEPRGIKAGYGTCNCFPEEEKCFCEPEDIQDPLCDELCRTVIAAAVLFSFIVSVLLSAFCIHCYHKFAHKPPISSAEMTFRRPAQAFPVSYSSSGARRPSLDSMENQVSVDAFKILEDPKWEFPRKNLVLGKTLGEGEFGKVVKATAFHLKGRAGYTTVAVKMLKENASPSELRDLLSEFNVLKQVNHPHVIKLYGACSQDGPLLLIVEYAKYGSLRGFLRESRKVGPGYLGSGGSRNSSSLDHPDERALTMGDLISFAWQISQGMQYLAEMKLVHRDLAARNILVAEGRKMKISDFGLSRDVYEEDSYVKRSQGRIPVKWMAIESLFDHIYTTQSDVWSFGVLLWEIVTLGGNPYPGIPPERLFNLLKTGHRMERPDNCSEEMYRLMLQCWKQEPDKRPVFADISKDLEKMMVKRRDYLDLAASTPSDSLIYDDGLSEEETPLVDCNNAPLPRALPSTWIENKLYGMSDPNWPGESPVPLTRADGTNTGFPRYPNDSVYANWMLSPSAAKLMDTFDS

[5] = tested on: adult rat lumbar DRG sensory neurons; assay: Neurite outgrowth from cultured DRG neurons; assay type: cell-based; settings: NGF 10 ng/ml, BT13 100 ng/ml
Method: Cultured lumbar DRG (L3–L5) neurons were prepared using a published method (O'Mullane et al., [2013]). After plating onto poly-L-ornithine (5 μg/ml)/laminin (5 μg/ml) coated coverslips for 1 h, DRG neurons were cultured for 24–30 h in fresh Neurobasal A/B27. GFLs, BT13, NGF, and vehicle control were added at the start of this period for a 24–30 h treatment, except when preceded by pre-treatment (1 h) with inhibitors (50 μM LY294002; 2 μM SU6656, […]; Biomol Research Laboratories, Plymouth Meeting, PA, USA). DRG neurons were then fixed (4% paraformaldehyde) and processed for immunocytochemistry with 1:200 Mouse anti-β III tubulin/AlexaFluor 594 (Sigma-Aldrich Cat# T8660 RRID:AB_477590) and 1:5,000 rabbit anti-calcitonin gene-related peptide/AlexaFluor 488 (Sigma-Aldrich Cat# C8198 RRID:AB_259091) and DAPI for nuclear staining (0.5 μg/ml, Molecular Probes). Image analysis of multichannel 12 bit Zeiss .ZVI or .TIF files (captured with a Zeiss Imager.M1/MRm camera/Zen software; Carl Zeiss Australia, North Ryde, NSW, Australia) was then performed by a researcher blinded to the experimental condition. Neurite initiation was measured by a single parameter (proportion of neurons with neurites longer than the soma diameter). Neurite elongation was measured by batch processing (HCA-Vision software; CSIRO Mathematical and Information Sciences, North Ryde, NSW, Australia) to obtain four parameters—Root number: number of primary neurites; Maximum length: length of longest neurite; Branch points: number of neurite branch points; and Total length: sum of neurite lengths (Kalous and Keast, [2010]; Kalous et al., [2012]). The number of neurons of each immunocytochemical class counted on each coverslip (technical replicates) was 50 for neurite initiation and 20 for neurite elongation. A minimum of three cultures from different rats (biological replicates) were analyzed for each treatment group.

[6] = tested on: COMT (catechol-O-methyl transferase); assay: CEREP COMT (catechol-O-methyl transferase); assay type: biochemical; settings: BT13 1 μM; Cat. No. 0457; average of duplicate
[7] = tested on: TrkA; assay: TrkA phosphorylation assay in MG87TrkA cells; assay type: cell-based; settings: BT13 10–100 μM, NGF positive control
Method: MG87RET, MG87TrkA, or MG87TrkB were plated on 35 mm tissue culture dishes 1–2 days before the experiment to achieve 90–95% of confluency of the cells at the day of stimulation with tested substances. If necessary, cells were transfected with 4 μg/well of GFRα1-, GFRα3-, or green fluorescent protein (GFP)-expressing plasmid using Lipofectamine 2000 (Invitrogen) for DNA delivery as described by manufacturer. Before the experiment cells were starved in serum-free DMEM containing 15 mM HEPES, pH 7.2 and 1% DMSO for 4 h and stimulated with BT13 or neurotrophic factors. Then cells were washed once with ice-cold PBS containing 1 mM Na3VO4 and 1 mM NaF and lysed on ice in 1 ml per well of RIPA-modified buffer (50 mM Tris-HCl, pH 7.4, 150 mM NaCl, 1 mM EDTA, 1% NP-40, 1% TX-100, 10% glycerol, EDTA-free protease inhibitor cocktail (Roche), 1 mM Na3VO4, 2.5 mg/ml of sodium deoxycholate, 1 mM NaF). Plates were incubated at +4°C on the horizontal shaker for 30 min with vigorous shaking. Afterwards, 80–100 μl aliquot was taken from each well to prepare whole cell lysates. This aliquot was mixed with equal volume of 2x Laemmli loading buffer (4% SDS, 20% glycerol, 10% 2-mercaptoethanol, 0.004% bromphenol blue, 0.125 M Tris HCl, pH 6.8) and boiled for 10 min at 100°C. Remaining cell lysates were used for immunoprecipitation of RET or Trk receptors. […]

[8] = CGRP-positive neurons, vs control

## CCN(CC)S(=O)(=O)c1ccc(OC)c(N2CCN(C(=O)c3ccc(F)cc3C(F)(F)F)CC2)c1 [BT13]
[1]; male, Sprague Dawley, iv, plasma and brain samples 1, 3 and 6 h, read-out: BBB penetration
  Kp: 0.55 to 0.68
[1]; male, Sprague Dawley, plasma, iv
  clearance: 78.3 mL/min
[1]; male, Sprague Dawley, plasma, iv, one-compartment model
  Vd: 23.6 L/kg
[1]; male, Sprague Dawley, plasma, iv, one-compartment model, read-out: t1/2 (half-life in the blood) (converted)
  half-life: 3.47 h
[1]; plasma and brain samples 1, 3 and 6 h, 10 mg/kg
  BBB penetration: 55–68%
[2]; after completion of behavioral experiments
  significant histopathological changes in major organs: not detected
[2]; experimental animals treated with BT13
  acute toxic effects, signs of pain or discomfort: No acute toxic effects, signs of pain or obvious discomfort
[2]; rat, in vivo
  tumor formation in the tissues of rats: no tumor formation
[3]
  inhibition at 1 µM: -5%
[4]
  efficacy, fold induction of luciferase above baseline: 7.4 fold
[4]; 0.1–50 μM, read-out: EC50, luciferase activation
  EC50: 20.7 µM
[5]; CGRP-negative neurons, ARTN 30 ng/ml
  neurite initiation or extension: no effect
[5]; CGRP-positive neurons, ARTN 30 ng/ml, overnight
  neurite initiation: no effect
[5]; [8]
  neurite elongation, branch points, mean difference: 22 ± 5
  neurite elongation, maximum length, mean difference: 91 ± 13 μm
  neurite elongation, total length, mean difference: 797 ± 207 μm
[5]; ARTN 30 ng/ml
  proportion of DRG neurons that expressed CGRP in culture: did not alter
[6]
  Percentage of inhibition/potentiation from control: −2%
[7]
  TrkA phosphorylation, Western blotting: did not produce any detectable increase
